In patent publication US20250313565A1, “NEW INDAZOLE DERIVATIVES” (Hoffmann-La Roche Inc., priority 2022, published 2025) one finds IC50 data, which are given here for three compounds.

The structures appear in SMILES notation.

T1 sequence (P00533 25-1210 C797S/L858R): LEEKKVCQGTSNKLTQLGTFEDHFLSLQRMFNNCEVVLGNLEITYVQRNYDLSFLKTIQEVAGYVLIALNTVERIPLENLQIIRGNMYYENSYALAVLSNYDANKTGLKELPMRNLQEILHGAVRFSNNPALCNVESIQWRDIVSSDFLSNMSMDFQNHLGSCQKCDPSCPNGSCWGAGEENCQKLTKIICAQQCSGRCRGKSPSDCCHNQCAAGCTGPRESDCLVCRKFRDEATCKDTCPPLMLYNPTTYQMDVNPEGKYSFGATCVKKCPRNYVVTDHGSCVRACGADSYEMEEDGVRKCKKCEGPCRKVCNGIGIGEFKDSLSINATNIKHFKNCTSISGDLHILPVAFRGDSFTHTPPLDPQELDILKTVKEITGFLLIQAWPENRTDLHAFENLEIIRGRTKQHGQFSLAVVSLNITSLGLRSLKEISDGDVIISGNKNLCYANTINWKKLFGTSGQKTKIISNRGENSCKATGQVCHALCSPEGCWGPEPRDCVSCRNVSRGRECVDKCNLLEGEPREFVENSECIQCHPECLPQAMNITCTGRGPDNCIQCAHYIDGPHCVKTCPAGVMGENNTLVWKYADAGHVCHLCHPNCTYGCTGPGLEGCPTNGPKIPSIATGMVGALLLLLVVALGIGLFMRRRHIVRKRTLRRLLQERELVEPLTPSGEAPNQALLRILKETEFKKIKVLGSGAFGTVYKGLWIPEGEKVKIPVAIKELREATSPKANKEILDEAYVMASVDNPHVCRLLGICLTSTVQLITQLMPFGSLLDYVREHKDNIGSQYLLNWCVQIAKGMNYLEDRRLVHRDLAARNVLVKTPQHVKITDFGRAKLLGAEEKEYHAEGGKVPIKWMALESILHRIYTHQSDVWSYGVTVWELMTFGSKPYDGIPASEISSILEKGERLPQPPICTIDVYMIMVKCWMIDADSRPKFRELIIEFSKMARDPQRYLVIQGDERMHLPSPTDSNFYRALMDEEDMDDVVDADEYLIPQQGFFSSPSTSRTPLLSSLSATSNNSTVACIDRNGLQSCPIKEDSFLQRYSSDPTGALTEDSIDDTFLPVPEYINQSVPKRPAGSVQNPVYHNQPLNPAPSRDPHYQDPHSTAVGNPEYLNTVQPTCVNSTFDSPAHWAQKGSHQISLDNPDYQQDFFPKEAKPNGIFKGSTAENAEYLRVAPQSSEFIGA

The experiment addresses T1, EGFR LRCS (BaF3-LRCS cell line) (Homo sapiens, UniProt P00533, C797S/L858R).
T1 construct: host or cells: BaF3-LRCS cell line (kept under puromycin selection)
The experiment can be described thus: HTRF Phospho EGFR LRCS assay (cellular). In kind it is cell-based. The settings on record: BaF3-LRCS cells, 4 hours incubation, Phospho-EGFR HTRF readout. Here is the method:
HTRF Phospho EGFR LRCS assay (cellular)
BaF3-LRCS cell line were obtained from Crownbio (San Diego, CA, USA). Cells were maintained at 37° C., 5% C02 in RPMI ATCC (Gibco 31870)+2 mM Glutamine+0.5 μg/ml Puromycin supplemented with 10% fetal bovine serum (FBS) (Gibco).
Cells are transferred as above to Greiner Bio-One, Nr. 784-08 micro-titerplate at 20000 cells/well in 12.5 μl of growth medium/well after the plates had been pre-filled with 12.5 nl of DMSO solutions of the to be tested compounds (in dose response) or DMSO only. After spinning the plates at 300×g for 30 seconds the cells were incubated for 4 hours at 37 C, 5% CO2, 95% humidity. The cells were lysed by adding to the compound mix 4 µl/well of the supplemented lysis buffer (Cis-bio, Phospho-EGFR HTRF kit, 64EG1PEH), followed by incubation for 30 min at room temperature with shaking (400 rpm). The plates were then frozen and stored overnight at −80° C. On the next day and after thawing the plates, 4 μl of a mixture of anti-Phospho-EGFR Cryptate and of anti-Phospho-EGFR-d2 antibody solutions prepared in the supplied detection buffer was added to each well. The lidded plates were then incubated for 4 h at room temperature before reading the fluorescence emission at 616 and 665 nm using an Envision reader (Perkin Elmer). Data was analyzed in similar fashion as above using the normalized ratio of the 665 to 616 signals multiplied by 10000.
`Cc1c(-c2ccc(N3CCOCC3)cc2)cc(C(F)(F)F)c2cn(C(C(=O)Nc3nccs3)c3ncn4c3CCC4(C)C)nc12` (stereo not drawn) [Example 3, 2-(5,5-Dimethyl-6,7-dihydropyrrolo[1,2-c]imidazol-1-yl)-2-[7-methyl-6-(4-morpholinophenyl)-4-(trifluoromethyl)indazol-2-yl]-N-thiazol-2-yl-acetamide] displayed a half-inhibitory concentration (IC50) of 45 nM.

For `Cc1c(-c2ccc(N3CCOCC3)cc2)cc(C(F)(F)F)c2cn(C(C(=O)Nc3nccs3)c3ncn4c3CCC43CC3)nc12` (stereo not drawn) [Example 2, 2-[7-Methyl-6-(4-morpholinophenyl)-4-(trifluoromethyl)indazol-2-yl]-2-spiro[6,7-dihydropyrrolo[1,2-c]imidazole-5,1′-cyclopropane]-1-yl-N-thiazol-2-yl-acetamide], the IC50 is 45 nM. Then `Cc1c(-c2ccc(N3CCOCC3)cc2)cc(C(F)F)c2cn(C(C(=O)Nc3nccs3)c3ncn4c3CCC43CC3)nc12` (stereo not drawn) [Example 1, 2-[4-(Difluoromethyl)-7-methyl-6-(4-morpholinophenyl)indazol-2-yl]-2-spiro[6,7-dihydropyrrolo[1,2-c]imidazole-5,1′-cyclopropane]-1-yl-N-thiazol-2-yl-acetamide], with 20 nM.
